Assay results taken from patent US20150291565A1, “INDOLE COMPOUNDS AND THEIR USE AS ANTIMICROBIALS” (Memorial Sloan-Kettering Cancer Center, priority 2012, published 2015).
Converted amounts (≈) assume the structure as drawn. Read-outs that look alike come from different tables or passages of the source.

How the values were obtained:
K. pneumoniae ATCC 51503 = experiment: Broth dilution MIC, K. pneumoniae ATCC 51503; type: cell-based; conditions: for MIC: Klebsiella pneumoniae
MRSA = experiment: Disk diffusion assay, zone of inhibition, MRSA; type: cell-based, Staphylococcus aureus; conditions: disk diffusion zone of inhibition
E. coli ECM 1694 = experiment: Broth dilution MIC, E. coli ECM 1694; type: cell-based; conditions: for MIC: Escherichia coli
E. faecium CT-26 = experiment: Broth dilution MIC, E. faecium CT-26; type: cell-based; conditions: for MIC: Enterococcus faecium
M. smegmatis (mc2155) = experiment: Disk diffusion assay, zone of inhibition, M. smegmatis; type: cell-based; conditions: disk diffusion zone of inhibition
[1] = tested on: S. pneumoniae ATCC 700674 (PRSP); experiment: Broth dilution MIC, S. pneumoniae ATCC 700674; type: cell-based; conditions: for MIC: Streptococcus pneumoniae
[2] = tested on: S. aureus ATCC 29213 (MSSA); experiment: Broth dilution MIC, S. aureus ATCC 29213; type: cell-based; conditions: for MIC: Staphylococcus aureus
S. aureus BAA-39 (MDR) = experiment: Broth dilution MIC, S. aureus BAA-39; type: cell-based; conditions: for MIC: Staphylococcus aureus, BAA39
[3] = tested on: S. aureus ATCC 33591 (MRSA); experiment: Broth dilution MIC, S. aureus ATCC 33591; type: cell-based; conditions: for MIC: Staphylococcus aureus
K. pneumoniae ATCC 13883 = experiment: Broth dilution MIC, K. pneumoniae ATCC 13883; type: cell-based; conditions: for MIC: Klebsiella pneumoniae
E. coli ATCC 25922 = experiment: Broth dilution MIC, E. coli ATCC 25922; type: cell-based; conditions: for MIC: Escherichia coli
P. aeruginosa ATCC 9027 = experiment: Broth dilution MIC, P. aeruginosa ATCC 9027; type: cell-based; conditions: for MIC: Pseudomonas aeruginosa
[4] = tested on: E. faecalis ATCC 29212 (VRE); experiment: Broth dilution MIC, E. faecalis ATCC 29212; type: cell-based
C. albicans ATCC 14053 = experiment: Broth dilution MIC, C. albicans ATCC 14053; type: cell-based; conditions: Candida albicans, ATCC14053; Table 1; range 64 down to 0.12 μg/ml
Protocol: In vitro Anti-bacterial & Anti-fungal Activity Assay: All test compounds were prepared as 6.4 mg/ml stock solutions in DMSO and further diluted according to the NCCLS M7-A6 (Page 5) document with sterile water or appropriate diluent. A working stock of 256 μg/ml was used to do 1:2 serial dilutions in 96-well plates. […] The inoculums were prepared by making a direct sterile water suspension of isolated colonies from 18 to 24 hr agar plates for all organisms (Mueller Hinton, Blood Agar or SDA plates). Each bacterial suspension was adjusted to read between 0.09 and 0.11 absorbance at 620 nm. […] These were further diluted 1/100 in appropriate broth for inoculating the 96-well plates. The C. albicans suspension was adjusted to read between 70 and 75% Transmittance at 530 nm and then diluted 1/500 in RPMI+MOPS broth. All aerobic bacterial and fungal plates were incubated for 18 hrs. at 35° C. […] Plates were read using a Beckman Automated Plate Reader at 650 nm. Readings were confirmed by visual examination of plates. (See Table 1, Table 2, Table 3, and Table 4). […] It is important to note that positive results against C. albicans are often indicative of broad spectrum antifungal activity, while negative results are not necessarily conclusory of a lack of activity against other fungus.

[5] = tested on: E. faecium ATCC 700221 (VRE); experiment: Broth dilution MIC, E. faecium ATCC 700221; type: cell-based
[6] = tested on: S. pneumoniae ATCC 6301 (PSSP); experiment: Broth dilution MIC, S. pneumoniae ATCC 6301; type: cell-based; conditions: for MIC: Streptococcus pneumoniae
E. coli (ATCC 25922) = experiment: Septicemia survival model in neutropenic CD1 mice, E. coli; type: in vivo; conditions: 10 mg/kg BID SC
[7] = Table 4, broth dilution MIC according to CLSI standards (NAEJA)

Compound: Nc1ccc(Nc2ccc(-c3cc4ccc(C5=NCCN5)cc4[nH]3)cc2)cc1 [SKI-8]
- MIC (K. pneumoniae ATCC 51503; ATCC51503, Table 1, range 64 down to 0.12 μg/ml, read-out: MIC K. pneumoniae ATCC 51503): > 64 µg/mL
- MIC (K. pneumoniae ATCC 51503; ATCC51503, Table 2, broth dilution MIC in ug/ml, read-out: MIC K pneumonia ATCC 51503): 64 µg/mL (≈ 174 µM)
- Zone Size MRSA (MRSA): 12 mm
- MIC (E. coli ECM 1694; ECM1694, Table 1, range 64 down to 0.12 μg/ml, read-out: MIC E. coli ECM 1694): 2 µg/mL (≈ 5.44 µM)
- MIC (E. coli ECM 1694; ECM1694, Table 2, broth dilution MIC in ug/ml, read-out: MIC E. coli ECM 1693): 2 µg/mL (≈ 5.44 µM)
- MIC (E. faecium CT-26; CT26, Table 1, range 64 down to 0.12 μg/ml, read-out: MIC E. faecium CT-26): 4 µg/mL (≈ 10.9 µM)
- MIC (E. faecium CT-26; CT26, Table 2, broth dilution MIC in ug/ml, read-out: MIC E faecium CT-25): 4 µg/mL (≈ 10.9 µM)
- Zone Size M. smegmatis (M. smegmatis (mc2155)): 24 mm
- MIC ([1]; Table 1, range 64 down to 0.12 μg/ml, read-out: MIC S. pneumoniae ATCC 700674): 32 µg/mL (≈ 87.1 µM)
- MIC ([1]; Table 2, broth dilution MIC in ug/ml, read-out: MIC S pneumonia ATCC 700674 PRSP): 32 µg/mL (≈ 87.1 µM)
- MIC ([2]; Table 1, range 64 down to 0.12 μg/ml, read-out: MIC S. aureus ATCC 29213): 16 µg/mL (≈ 43.5 µM)
- MIC ([2]; Table 2, broth dilution MIC in ug/ml, read-out: MIC S aureus ATCC 29213 MSSA): 16 µg/mL (≈ 43.5 µM)
- MIC (S. aureus BAA-39 (MDR); Table 1, range 64 down to 0.12 μg/ml, read-out: MIC S. aureus BAA-39): 16 µg/mL (≈ 43.5 µM)
- MIC (S. aureus BAA-39 (MDR); Table 2, broth dilution MIC in ug/ml, read-out: MIC S aureus BAA-39 MDR): 16 µg/mL (≈ 43.5 µM)
- MIC ([3]; Table 1, range 64 down to 0.12 μg/ml, read-out: MIC S. aureus ATCC 33591): 8 µg/mL (≈ 21.8 µM)
- MIC ([3]; Table 2, broth dilution MIC in ug/ml, read-out: MIC S aureus ATCC 33591 MRSA): 8 µg/mL (≈ 21.8 µM)
- MIC (K. pneumoniae ATCC 13883; ATCC13883, Table 1, range 64 down to 0.12 μg/ml, read-out: MIC K. pneumoniae ATCC 13883): > 64 µg/mL
- MIC (K. pneumoniae ATCC 13883; ATCC13883, Table 2, broth dilution MIC in ug/ml, read-out: MIC K pneumonia ATCC 13883): 64 µg/mL (≈ 174 µM)
- MIC (E. coli ATCC 25922; ATCC 25921 / ATCC 25922, Table 2, broth dilution MIC in ug/ml, read-out: MIC E. coli ATCC 25921): 32 µg/mL (≈ 87.1 µM)
- MIC (E. coli ATCC 25922; ATCC25922, Table 1, range 64 down to 0.12 μg/ml, read-out: MIC E. coli ATCC 25922): 32 µg/mL (≈ 87.1 µM)
- MIC (P. aeruginosa ATCC 9027; ATCC 9026 / ATCC 9027, Table 2, broth dilution MIC in ug/ml, read-out: MIC P aeruginosa ATCC 9026): 64 µg/mL (≈ 174 µM)
- MIC (P. aeruginosa ATCC 9027; ATCC9027, Table 1, range 64 down to 0.12 μg/ml, read-out: MIC P. aeruginosa ATCC 9027): > 64 µg/mL
- MIC ([4]; Enterococcus faecalis, Table 1, range 64 down to 0.12 μg/ml, read-out: MIC E. faecalis ATCC 29212): 8 µg/mL (≈ 21.8 µM)
- MIC ([4]; Table 2, broth dilution MIC in ug/ml, read-out: MIC E faecalis ATCC 29212 VRE): 8 µg/mL (≈ 21.8 µM)
- MIC (C. albicans ATCC 14053): 64 µg/mL (≈ 174 µM)
- MIC ([5]; Enterococcus faecium, Table 1, range 64 down to 0.12 μg/ml, read-out: MIC E. faecium ATCC 700221): 4 µg/mL (≈ 10.9 µM)
- MIC ([5]; Table 2, broth dilution MIC in ug/ml, read-out: MIC E faecium ATCC 700221 VRE): 4 µg/mL (≈ 10.9 µM)
- MIC ([6]; ATCC6301, Table 1, range 64 down to 0.12 μg/ml, read-out: MIC S. pneumoniae ATCC 6301): 8 µg/mL (≈ 21.8 µM)
- MIC ([6]; ATCC6301, Table 2, broth dilution MIC in ug/ml, read-out: MIC S pneumonia ATCC 6301 PSSP): 8 µg/mL (≈ 21.8 µM)

Compound: Gentamicin [reference compound]
- Percent Survival Day 1 (E. coli (ATCC 25922)): 100%
- Percent Survival Day 2 (E. coli (ATCC 25922)): 100%
- Percent Survival Day 3 (E. coli (ATCC 25922)): 80%
- Percent Survival Day 4 (E. coli (ATCC 25922)): 60%
- Percent Survival Day 5 (E. coli (ATCC 25922)): 60%
- Percent Survival Day 6 (E. coli (ATCC 25922)): 60%
- Percent Survival Day 7 (E. coli (ATCC 25922)): 60%

Compound: Nc1ccc(-c2cc3ccc(C4=NCCN4)cc3[nH]2)cc1 [Compound 398657]
- Zone Size MRSA (MRSA): 8.3 mm
- Zone Size M. smegmatis (M. smegmatis (mc2155)): 9.2 mm

Compound: C[C@@H](O)[C@H]1C(=O)N2C(C(=O)O)=C(SCCN=CN)C[C@H]12 [IMP, reference compound]
- MIC K. pneumoniae ATCC 51503 (K. pneumoniae ATCC 51503; [7]): 2 µg/mL (≈ 6.68 µM)
- MIC E. coli ECM 1694 (E. coli ECM 1694; Table 3, starting at 4 μg/ml): 0.5 µg/mL (≈ 1.67 µM)
- MIC E. coli ECM 1694 (E. coli ECM 1694; [7]): 2 µg/mL (≈ 6.68 µM)
- MIC E. faecium CT-26 (E. faecium CT-26; Table 3, starting at 4 μg/ml): >4 µg/mL
- MIC E. faecium CT-26 (E. faecium CT-26; [7]): >4 µg/mL
- MIC S. pneumoniae ATCC 700674 ([1]; Table 3, starting at 4 μg/ml): 0.06 µg/mL (≈ 0.2 µM)
- MIC PRSP S. pneumoniae ATCC 700674 [1, 7]: 0.5 µg/mL (≈ 1.67 µM)
- MIC S. aureus ATCC 29213 ([2]; Table 3, starting at 4 μg/ml): 0.016 µg/mL (≈ 0.0534 µM)
- MIC MSSA S. aureus ATCC 29213 [2, 7]: 0.06 µg/mL (≈ 0.2 µM)
- MIC S. aureus BAA-39 (S. aureus BAA-39 (MDR); Table 3, starting at 4 μg/ml): 1 µg/mL (≈ 3.34 µM)
- MIC MDR S. aureus BAA-39 (S. aureus BAA-39 (MDR); [7]): 4 µg/mL (≈ 13.4 µM)
- MIC S. aureus ATCC 33591 ([3]; Table 3, starting at 4 μg/ml): >4 µg/mL
- MIC MRSA S. aureus ATCC 33591 [3, 7]: >4 µg/mL
- MIC K. pneumoniae ATCC 13883 (K. pneumoniae ATCC 13883; [7]): 2 µg/mL (≈ 6.68 µM)
- MIC E. coli ATCC 25922 (E. coli ATCC 25922; [7]): 1 µg/mL (≈ 3.34 µM)
- MIC P. aeruginosa ATCC 9027 (P. aeruginosa ATCC 9027; [7]): 4 µg/mL (≈ 13.4 µM)
- MIC E. faecalis ATCC 29212 ([4]; Table 3, starting at 4 μg/ml): 1 µg/mL (≈ 3.34 µM)
- MIC VRE E. faecalis ATCC 29212 [4, 7]: 4 µg/mL (≈ 13.4 µM)
- MIC E. faecium ATCC 700221 ([5]; Table 3, starting at 4 μg/ml): >4 µg/mL
- MIC VRE E. faecium ATCC 700221 [5, 7]: >4 µg/mL
- MIC S. pneumoniae ATCC 6301 ([6]; Table 3, starting at 4 μg/ml): ≦0.008 mcg/ml
- MIC PSSP S. pneumoniae ATCC 6301 [6, 7]: 0.015 µg/mL (≈ 0.0501 µM)
